Data on two molecules can be found in patent publication US20160262894A1, “TISSUE REPAIR DEVICES AND SCAFFOLDS” (priority 2013, published 2016).

For assay [1], the system named is 3 mm calvaria defect. The settings on record: murine model of calvarial bone regeneration; background statement; cited from earlier work.
In assay [2] the test system is 3 mm calvaria defect. The note with it: application at the site of the bone defect. The source says:
In vivo testing in mice: The 3-D scaffolds will be evaluated in a murine model using a 3 mm calvaria defect model.

The subject of assay [3] is adenosine A2A knockout (A2AKO) mice. Briefly: in vivo bone formation by MicroCT in adenosine A2A knockout (A2AKO) mice, coated βTCP-HA scaffolds. The settings on record: 4 weeks post-surgery, CGS21680 10 mM.
Text: The remaining scaffold is shown in blue, and the new bone formation is shown in red.

As for `OCCN(CCO)c1nc(N2CCCCC2)c2nc(N(CCO)CCO)nc(N3CCCCC3)c2n1` [dipyridamole], the bone regeneration result in the assay on 3 mm calvaria defect [1] was “exponentially stimulates bone regeneration”. In addition, the “new bone growth at the site of a bone defect” value in the assay with 3 mm calvaria defect [2] is “promotes new bone growth”. Besides, the new bone formation entry in assay [3] (collagen-coated βTCP-HA scaffolds, Dipyridamole 100 μM) is given as “did not differ from that induced in saline- or CGS21680-coated surfaces”.
Turning to `CCNC(=O)[C@H]1O[C@@H](n2cnc3c(N)nc(NCCc4ccc(CCC(=O)O)cc4)nc32)[C@H](O)[C@@H]1O` [CGS21680], in assay [3] (compared with dipyridamole-coated scaffolds), the resorption of scaffolds entry is on record as “greater”.
